Activity calls are given as the source filed them.
Experiments:
Estrogen receptor beta [1] = biological target: T1, Estrogen receptor beta (Homo sapiens, UniProt Q92731);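 note: recombinant ER-beta bound to coactivator SRC1 peptide in presence of estradiol agonist; inhibitors block coactivator peptide binding and lower the FRET signal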
Estrogen receptor beta [2] = biological target: T1, Estrogen receptor beta; experiment: blockers of SRC-3 recruitment to ERβ – biochemical, ELISA, streptavidin-HRP readout, orthogonal assay, confirmation (AID 1060)
Bcl-2-like protein 10 = biological target: T2, Bcl-2-like protein 10 (Homo sapiens, UniProt Q9HD36); experiment: Bcl-B/TR3 peptide binding disruption – biochemical, fluorescence polarization, FITC-TR3 peptide, selectivity assay for Bfl-1 inhibitor project, primary screen (AID 748);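 note: fluorescence polarization from a fluorescein-labelled TR3 peptide binding purified Bcl-B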
T2 sequence (Q9HD36 whole entry): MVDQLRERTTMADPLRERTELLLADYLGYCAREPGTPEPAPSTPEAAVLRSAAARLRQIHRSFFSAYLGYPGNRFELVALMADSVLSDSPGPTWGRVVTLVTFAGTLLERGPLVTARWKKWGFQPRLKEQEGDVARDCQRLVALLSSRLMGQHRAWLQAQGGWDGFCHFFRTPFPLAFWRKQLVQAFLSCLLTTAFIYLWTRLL

Leucine aminopeptidase = biological target: T3, Leucine aminopeptidase (Plasmodium falciparum 3D7, UniProt Q8IL11); experiment: P. falciparum M17LAP inhibitors, primary screen, biochemical, fluorogenic H-Leu-NHMec substrate, 1536-well (AID 1619); assay type: functional
T3 sequence (Q8IL11 whole entry): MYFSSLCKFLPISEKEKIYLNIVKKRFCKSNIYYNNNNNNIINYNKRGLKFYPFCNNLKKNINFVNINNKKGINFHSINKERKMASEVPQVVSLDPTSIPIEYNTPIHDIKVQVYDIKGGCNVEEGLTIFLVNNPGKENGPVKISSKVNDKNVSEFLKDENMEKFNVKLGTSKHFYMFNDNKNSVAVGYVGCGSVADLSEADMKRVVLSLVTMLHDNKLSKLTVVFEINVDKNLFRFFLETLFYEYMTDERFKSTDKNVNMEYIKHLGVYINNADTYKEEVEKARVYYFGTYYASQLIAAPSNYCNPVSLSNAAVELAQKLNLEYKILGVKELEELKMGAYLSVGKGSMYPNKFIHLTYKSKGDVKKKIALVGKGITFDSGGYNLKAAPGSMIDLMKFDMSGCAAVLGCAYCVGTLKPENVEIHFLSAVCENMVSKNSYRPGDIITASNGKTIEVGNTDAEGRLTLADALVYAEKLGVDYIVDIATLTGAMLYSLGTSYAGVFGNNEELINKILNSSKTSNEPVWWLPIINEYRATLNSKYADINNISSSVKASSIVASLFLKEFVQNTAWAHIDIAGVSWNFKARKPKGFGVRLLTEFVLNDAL

Aspartyl aminopeptidase = Aspartyl aminopeptidase (Plasmodium falciparum 3D7, UniProt Q8I2J3); experiment: Counterscreen for inhibitors of M1 and M17 aminopeptidases: QFRET-based biochemical high throughput dose response assay for inhibitors of the Plasmodium falciparum M18 Aspartyl Aminopeptidase (PFM18AAP). [Related PubChem assays: 1619 (Screening assay (M17LAP inhibitors).), 1445 (Screening assay (M1AAP inhibitors).)]
[3] = biological target: T4, Long-chain-fatty-acid--AMP ligase FadD28 (Mycobacterium tuberculosis, UniProt P9WQ59); experiment: Fluorescence polarization aasay to screen for inhibitors that compete for the binding of FadD28 to a bisubstrate Measured in Biochemical System Using Plate Reader - 2147-01_Inhibitor_Dose_CherryPick_Activity.; assay type: functional, Mycobacterium tuberculosis H37Rv
T4 sequence (P9WQ59 whole entry): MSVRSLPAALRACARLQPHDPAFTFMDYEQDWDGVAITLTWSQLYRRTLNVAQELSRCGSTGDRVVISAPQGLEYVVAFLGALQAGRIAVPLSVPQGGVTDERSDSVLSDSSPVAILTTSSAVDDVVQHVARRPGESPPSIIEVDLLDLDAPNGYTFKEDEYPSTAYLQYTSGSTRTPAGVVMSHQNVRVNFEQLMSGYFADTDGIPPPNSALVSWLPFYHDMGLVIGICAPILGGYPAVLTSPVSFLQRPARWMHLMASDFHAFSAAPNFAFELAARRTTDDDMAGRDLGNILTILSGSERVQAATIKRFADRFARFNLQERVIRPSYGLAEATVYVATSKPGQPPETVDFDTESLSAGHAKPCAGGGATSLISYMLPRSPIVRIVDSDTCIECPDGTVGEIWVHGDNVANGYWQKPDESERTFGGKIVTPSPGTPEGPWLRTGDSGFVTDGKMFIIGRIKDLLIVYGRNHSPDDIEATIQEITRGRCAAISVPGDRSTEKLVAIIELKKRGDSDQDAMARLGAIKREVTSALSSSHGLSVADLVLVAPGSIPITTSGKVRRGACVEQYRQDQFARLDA

Procathepsin L = Procathepsin L (Homo sapiens, UniProt P07711); experiment: CTSL1 protease inhibition – biochemical, QFRET, 1536-well, counter-screen for M1/M17 aminopeptidase inhibitor project, dose response (AID 2214)
[4] = mitochondrial function rescue without frataxin homolog – Friedreich's ataxia, plus single-dose screen, dose response (AID 1465); assay type: functional;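 note: yeast depleted of Yfh1p frataxin homolog grown on glycerol needing respiration; WST-1 tetrazolium dye reduction as measure of cellular dehydrogenase metabolic activity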
[5] = biological target: T5, Sphingosine 1-phosphate receptor 4 (Homo sapiens, UniProt O95977); experiment: Late stage fluorescence dose response cell-based screening assay for antagonists of the Sphingosine 1-Phosphate Receptor 4 (S1P4). [Related pubchem assays: 1524 (Confirmation screen (S1P4 antagonists).), 1510 (Primary screen (S1P4 antagonists).), 1853 (Summary AID (S1P4 antagonists).), 1692 (Dose response screen (S1P4 antagonists).)]; assay type: functional
T5 sequence (O95977 whole entry): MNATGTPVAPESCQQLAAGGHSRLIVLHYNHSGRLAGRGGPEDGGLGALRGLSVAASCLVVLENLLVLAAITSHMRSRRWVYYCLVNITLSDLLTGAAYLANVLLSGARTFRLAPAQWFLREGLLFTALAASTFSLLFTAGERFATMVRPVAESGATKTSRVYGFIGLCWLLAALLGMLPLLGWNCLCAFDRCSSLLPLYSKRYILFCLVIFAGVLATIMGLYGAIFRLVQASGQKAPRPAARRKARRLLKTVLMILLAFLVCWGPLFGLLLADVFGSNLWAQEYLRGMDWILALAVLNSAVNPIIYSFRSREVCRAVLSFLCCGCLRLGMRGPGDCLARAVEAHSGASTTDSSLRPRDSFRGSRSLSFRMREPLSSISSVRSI

[6] = blockers of bursicon-stimulated LGR2 cAMP reporter – cell-based, HEK293, CRE-luciferase reporter, cherry pick, set 2, dose response (AID 743343); assay type: functional;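 note: transfected cells were stimulated with diluted bursicon conditioned medium after compound addition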
[7] = Fluorescence-based cell-based high throughput dose response assay for inhibitors of the interaction of nucleotide-binding oligomerization domain containing 2 (NOD2) and the receptor-interacting serine-threonine kinase 2 (RIPK2).; assay type: functional; details: Homo sapiens
[8] = viability loss in HEK293 cells – cell-based, plate reader, cherry-picked samples, cytotoxicity control, dose response (AID 743446); assay type: functional
[9] = A549 cell cytotoxicity, dose response, cytotoxicity control, plate reader, cherry-pick, antagonist series (AID 743412); assay type: functional, cell-based
[10] = biological target: FAD-linked sulfhydryl oxidase ALR (Homo sapiens, UniProt P55789); experiment: ALR-catalysed DTT oxidation blockers – biochemical, H2O2 detection, luminescence, cherry-pick, dose response (AID 493248)
[11] = blockade of melanocortin 4 receptor signaling – cell-based, plate reader, cherry pick, counter-screen for LGR2 antagonist project, dose response (AID 743444); assay type: functional;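 note: transfected HEK 293 cells stimulated with alpha-MSH peptide; potency of inhibitors of the alpha-MSH evoked signal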
Paired box protein Pax-8 = Paired box protein Pax-8 (Homo sapiens, UniProt Q06710); experiment: PAX8 transcriptional activity inhibition in RMG-I – RMG-I cells, luciferase, cherry-pick, dose response (AID 687027); assay type: functional, cell-based;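 note: luciferase reporter driven by Pax8 target thyroperoxidase promoter measured by SteadyGlo luminescence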
[12] = biological target: Sphingosine 1-phosphate receptor 1 (Homo sapiens, UniProt P21453); assay type: functional;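 note: Tango beta-arrestin reporter U2OS cells stimulated with S1P near its EC80; inhibitor potency meaning antagonism of receptor activation by the natural agonist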
[13] = toxicity toward HepG2 liver cells – cell-based, plate reader, cherry-pick, antagonist series, cytotoxicity control, dose response (AID 743416); assay type: functional
[14] = biological target: T5, Sphingosine 1-phosphate receptor 4; experiment: Fluorescence dose response cell-based high throughput screening assay for antagonists of the Sphingosine 1-Phosphate Receptor 4 (S1P4). [Related pubchem assays: 1524 (Confirmation in triplicates.), 1510 (Primary screen.)]; assay type: functional
INS1 = experiment: INS-1E survival protection against cytokine death – cell-based, luminescence, retest, dose response (AID 449756); assay type: functional; details: Rattus norvegicus;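 note: cell death triggered by IL-1 beta plus TNF-alpha plus IFN-gamma mixture; protective hits raise ATP signal compared with cytokine alone wells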

T1 sequence (Q92731 whole entry): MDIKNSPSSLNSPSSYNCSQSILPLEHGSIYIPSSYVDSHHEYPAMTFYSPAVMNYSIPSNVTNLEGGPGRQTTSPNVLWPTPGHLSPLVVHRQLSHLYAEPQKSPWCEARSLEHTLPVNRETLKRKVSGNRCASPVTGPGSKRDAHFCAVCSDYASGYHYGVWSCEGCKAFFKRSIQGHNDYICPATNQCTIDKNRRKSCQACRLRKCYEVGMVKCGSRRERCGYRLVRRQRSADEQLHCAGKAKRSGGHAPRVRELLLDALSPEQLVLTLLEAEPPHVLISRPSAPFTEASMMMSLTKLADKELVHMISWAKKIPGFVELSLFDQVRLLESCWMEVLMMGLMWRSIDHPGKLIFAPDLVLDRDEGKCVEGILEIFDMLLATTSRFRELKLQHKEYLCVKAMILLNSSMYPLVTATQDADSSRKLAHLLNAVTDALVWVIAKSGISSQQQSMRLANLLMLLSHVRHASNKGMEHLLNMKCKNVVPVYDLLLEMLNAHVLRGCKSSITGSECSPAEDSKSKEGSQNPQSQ
Sphingosine 1-phosphate receptor 1, sequence (P21453 whole entry): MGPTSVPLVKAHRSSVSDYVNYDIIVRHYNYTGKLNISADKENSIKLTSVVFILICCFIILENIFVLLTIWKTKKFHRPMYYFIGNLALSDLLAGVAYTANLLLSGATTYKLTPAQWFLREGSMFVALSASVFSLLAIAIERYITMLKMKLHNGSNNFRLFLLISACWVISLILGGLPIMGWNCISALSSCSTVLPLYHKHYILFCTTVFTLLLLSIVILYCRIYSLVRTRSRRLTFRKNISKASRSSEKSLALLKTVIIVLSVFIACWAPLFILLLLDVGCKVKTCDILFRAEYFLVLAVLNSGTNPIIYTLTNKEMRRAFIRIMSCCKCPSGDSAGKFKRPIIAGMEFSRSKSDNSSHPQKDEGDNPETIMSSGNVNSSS
FAD-linked sulfhydryl oxidase ALR, sequence (P55789 whole entry): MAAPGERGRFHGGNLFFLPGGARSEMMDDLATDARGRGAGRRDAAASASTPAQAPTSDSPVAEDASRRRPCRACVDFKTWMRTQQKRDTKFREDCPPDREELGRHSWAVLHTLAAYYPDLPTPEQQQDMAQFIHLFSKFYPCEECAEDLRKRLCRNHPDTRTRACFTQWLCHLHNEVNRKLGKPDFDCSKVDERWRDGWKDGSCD
Paired box protein Pax-8, sequence (Q06710 whole entry): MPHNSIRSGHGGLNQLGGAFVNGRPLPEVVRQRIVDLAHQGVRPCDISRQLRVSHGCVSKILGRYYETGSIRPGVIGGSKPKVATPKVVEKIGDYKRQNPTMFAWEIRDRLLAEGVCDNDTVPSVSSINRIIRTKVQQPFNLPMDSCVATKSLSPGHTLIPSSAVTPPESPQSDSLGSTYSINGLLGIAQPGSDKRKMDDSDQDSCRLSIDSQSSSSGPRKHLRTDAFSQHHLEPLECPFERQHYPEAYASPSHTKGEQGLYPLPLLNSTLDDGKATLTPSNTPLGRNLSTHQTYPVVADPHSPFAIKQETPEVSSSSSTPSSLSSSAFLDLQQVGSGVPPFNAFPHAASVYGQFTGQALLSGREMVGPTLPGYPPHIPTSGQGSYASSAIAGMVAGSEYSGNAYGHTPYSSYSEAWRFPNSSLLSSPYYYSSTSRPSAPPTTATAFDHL
Aspartyl aminopeptidase, sequence (Q8I2J3 whole entry): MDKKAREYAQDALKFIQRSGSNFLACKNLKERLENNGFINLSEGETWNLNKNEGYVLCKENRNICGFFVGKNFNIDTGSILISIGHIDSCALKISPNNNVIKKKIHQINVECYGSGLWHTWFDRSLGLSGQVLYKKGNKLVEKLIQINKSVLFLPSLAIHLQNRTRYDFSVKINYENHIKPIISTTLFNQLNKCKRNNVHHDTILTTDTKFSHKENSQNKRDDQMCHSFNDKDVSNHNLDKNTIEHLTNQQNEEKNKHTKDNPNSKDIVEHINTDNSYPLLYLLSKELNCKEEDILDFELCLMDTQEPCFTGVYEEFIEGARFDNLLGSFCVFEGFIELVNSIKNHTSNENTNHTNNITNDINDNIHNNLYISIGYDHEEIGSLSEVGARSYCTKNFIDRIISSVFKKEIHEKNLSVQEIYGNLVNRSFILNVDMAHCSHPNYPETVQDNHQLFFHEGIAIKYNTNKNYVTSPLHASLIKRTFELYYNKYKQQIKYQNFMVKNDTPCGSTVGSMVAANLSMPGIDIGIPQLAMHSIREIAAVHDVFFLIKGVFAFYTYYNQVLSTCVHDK
Procathepsin L, sequence (P07711 whole entry): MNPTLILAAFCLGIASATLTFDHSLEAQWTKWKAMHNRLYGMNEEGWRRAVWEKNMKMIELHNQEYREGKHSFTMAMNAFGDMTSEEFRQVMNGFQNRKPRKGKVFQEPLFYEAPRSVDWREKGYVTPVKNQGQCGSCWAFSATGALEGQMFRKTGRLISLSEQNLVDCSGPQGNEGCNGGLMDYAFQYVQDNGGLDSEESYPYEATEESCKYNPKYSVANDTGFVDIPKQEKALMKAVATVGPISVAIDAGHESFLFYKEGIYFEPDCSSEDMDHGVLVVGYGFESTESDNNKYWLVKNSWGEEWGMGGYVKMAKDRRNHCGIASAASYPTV

O=C(COC(=O)c1cccs1)NCc1ccco1
IC50 (Estrogen receptor beta [1]): > 50 µM (not active) | IC50 (Estrogen receptor beta [2]): 8.95 µM (not active) | IC50 (Bcl-2-like protein 10): 85.1 µM (inactive)

CCOc1ccc(NC(=O)C2C(C(=O)O)C3(Cl)C(Cl)=C(Cl)C2(Cl)C3(Cl)Cl)cc1 (stereo not given)
IC50 (Leucine aminopeptidase): < 1 µM (active) | IC50 (Aspartyl aminopeptidase): > 73.5 µM (not active) | AC50 [3]: 11.5 µM (active) | IC50 (Procathepsin L): > 59.6 µM (not active)

CCCC(C(=O)O)N1C(=O)/C(=C/c2cccn2C)SC1=S (stereo not given)
EC50 [4]: > 100 µM (active)

COc1ccc([N+](=O)[O-])c(S(=O)(=O)c2ccccc2)n1
IC50 [5]: 1.42 µM (not active) | AC50 [6]: 4.61 µM (active) | IC50 [7]: 3.15 µM (active) | AC50 [8]: 8.06 µM (active) | AC50 [9]: 8.75 µM (active) | AC50 [10]: 0.501 µM (active) | AC50 [11]: 4.27 µM (active) | AC50 (Paired box protein Pax-8): 8.18 µM (active) | IC50 [12]: 7.19 µM (active) | AC50 [13]: 7.56 µM (active) | IC50 [14]: 0.691 µM (active) | AC50 (INS1): 7.12 µM (active)
